In brackets after ≈: the same amount, converted by molar mass. Activity calls are given as the source filed them. No cut-off for these calls is given here.
Key:
Staphylococcus aureus = assay: Antibacterial activity against Staphylococcus aureus ATCC 25923; assay type: functional
Micrococcus = assay: Antibacterial activity against Micrococcus sp.; assay type: functional
Streptococcus pneumoniae = assay: Antibacterial activity against Streptococcus pneumoniae; assay type: functional
Streptococcus pyogenes = assay: Antibacterial activity against Streptococcus pyogenes; assay type: functional
Microsporum canis = assay: Antifungal activity against Microsporum canis; assay type: functional
Streptococcus viridans = assay: Antibacterial activity against Streptococcus viridans; assay type: functional
Neisseria gonorrhoeae = assay: Antibacterial activity against Neisseria gonorrhoeae; assay type: functional
Klebsiella aerogenes = assay: Antibacterial activity against Enterobacter aerogenes; assay type: functional
Escherichia coli = assay: Antibacterial activity against Escherichia coli; assay type: functional
Klebsiella pneumoniae = assay: Antibacterial activity against Klebsiella pneumoniae; assay type: functional
Proteus vulgaris = assay: Antibacterial activity against Proteus vulgaris; assay type: functional
Pseudomonas aeruginosa = assay: Antibacterial activity against Pseudomonas aeruginosa; assay type: functional
Salmonella typhimurium = assay: Antibacterial activity against Salmonella Typhimurium; assay type: functional, Salmonella enterica subsp. enterica serovar Typhimurium; conditions: Salmonella enterica
Serratia marcescens = assay: Antibacterial activity against Serratia marcescens; assay type: functional
Shigella flexneri = assay: Antibacterial activity against Shigella flexneri; assay type: functional
[1] = tested on: Mycolicibacterium fortuitum; assay: Antibacterial activity against Mycobacterium fortuitum; assay type: functional
Candida albicans = assay: Antifungal activity against Candida albicans; assay type: functional
Candida tropicalis = assay: Antifungal activity against Candida tropicalis; assay type: functional
Aspergillus flavus = assay: Antifungal activity against Aspergillus flavus; assay type: functional
Aspergillus fumigatus = assay: Antifungal activity against Aspergillus fumigatus; assay type: functional
Aspergillus niger = assay: Antifungal activity against Aspergillus niger; assay type: functional
[2] = tested on: Trichophyton mentagrophytes; assay: Antifungal activity against Trichophyton mentagrophytes; assay type: functional
Trichophyton rubrum = assay: Antifungal activity against Trichophyton rubrum; assay type: functional
Human alphaherpesvirus 1 = assay: Antiviral activity against Herpes simplex virus 1 in african green monkey Vero cells; assay type: functional, organism-based
Coxsackievirus = assay: Antiviral activity against Coxsackievirus B2 in african green monkey Vero cells; assay type: functional, organism-based
Poliovirus 1 = assay: Antiviral activity against Human poliovirus 1 1A/S2 in african green monkey Vero cells; assay type: functional, organism-based
Semliki Forest virus = assay: Antiviral activity against Semliki forest virus in african green monkey Vero cells; assay type: functional, organism-based

COc1cc(-c2cc(=O)c3c(O)c(OC)c(OC)cc3o2)cc(OC)c1OC [GRADENIN A]
MIC (Staphylococcus aureus): 20 µg/mL (≈ 51.5 µM) | MIC (Micrococcus): > 200 µg/mL | MIC (Streptococcus pneumoniae): > 200 µg/mL | MIC (Streptococcus pyogenes): > 200 µg/mL | MIC (Microsporum canis): 50 µg/mL (≈ 129 µM) | MIC (Streptococcus viridans): > 200 µg/mL | MIC (Neisseria gonorrhoeae): > 200 µg/mL | MIC (Klebsiella aerogenes): > 200 µg/mL | MIC (Escherichia coli): > 200 µg/mL | MIC (Klebsiella pneumoniae): > 200 µg/mL | MIC (Proteus vulgaris): > 200 µg/mL | MIC (Pseudomonas aeruginosa): > 200 µg/mL | MIC (Salmonella typhimurium): 5 µg/mL (≈ 12.9 µM) | MIC (Serratia marcescens): > 200 µg/mL | MIC (Shigella flexneri): > 200 µg/mL | MIC [1]: > 200 µg/mL | MIC (Candida albicans): > 200 µg/mL | MIC (Candida tropicalis): 20 µg/mL (≈ 51.5 µM) | MIC (Aspergillus flavus): > 200 µg/mL | MIC (Aspergillus fumigatus): 200 µg/mL (≈ 515 µM) | MIC (Aspergillus niger): 200 µg/mL (≈ 515 µM) | MIC [2]: 50 µg/mL (≈ 129 µM) | MIC (Trichophyton rubrum): > 200 µg/mL | Activity (Human alphaherpesvirus 1): inactive | Activity (Coxsackievirus): inactive | Activity (Poliovirus 1): inactive | Activity (Semliki Forest virus): inactive
